Patent publication US12492403B2, “Aptamers and the use thereof in the treatment of cancer” (FUNDACIÓN PARA LA INVESTIGACIÓN BIOMÉDICA DEL HOSPITAL …, priority 2018, dated 2025)

Experiments:
MNK1aΔ77 = MNK1aΔ77 (Homo sapiens, UniProt Q9BUB5); experiment: ELONA binding of biotin-labeled aptamer; settings: apMNKQ2-Bio at 20 nM, GST-MNK1aΔ77 0.2 μg/well
Protocol: (§1) FIGS. 5A-5C. Characterization of the interaction of aptamer apMNKQ2 with MNK1 by means of ELONA. (A) ELONAs in which GST-MNKs previously adsorbed in 96-well plates at 0.2 μg/well (3 pmol/well) with apMNKQ2-Bio at 20 nM were incubated (FIG. 5A). The bars represent the mean±SEM of at least 3 independent experiments (*p<0.05, **p<0.01, and ***p<0.001 with respect to the blank and c p<0.05, b p<0.01, and a p<0.001 MNK1b with respect to MNK1a). ELONAs in which concentrations of 0 to 500 nM of apMNKQ2 were incubated (FIGS. 5A and 5C).
(§2) To determine the binding of the aptamers to MNK1a or MNK1b, 200 ng of protein/well diluted in a coating solution (KPL, USA) in a final volume of 100 μL/well were added to a Maxisorp Nunc 96-well ELISA plate (ThermoFisher Scientific, USA). The plate was incubated overnight at 4° C. under stirring. Aptamers were then added at the corresponding concentration according to the assay, in a final volume of 100 μL/well of BSA-free aptamer buffer for 1 hour at 37° C. under stirring. All the aptamers used were labeled with biotin and had been previously denatured at 90° C. for 10 minutes and then kept at 4° C. for 10 minutes in the BSA-free aptamer buffer. To detect the binding of the aptamer to the protein, 100 μL/well of streptavidin-peroxidase (GE Healthcare, United Kingdom) diluted 1/1000 in the aptamer buffer at 37° C. for 1 hour under stirring were added. To develop the plate, 100 μL/well of ABTS solution (Roche, Switzerland) were added, and it was incubated in darkness at room temperature, with measurements being taken every 10 minutes at a wavelength of 405 nm in an Infinite F200 spectrophotometer (TECAN, Switzerland).

MNK1ΔCt = MNK1ΔCt (Homo sapiens, UniProt Q9BUB5); experiment: ELONA binding of biotin-labeled aptamer; settings: apMNKQ2-Bio at 20 nM, GST-MNK1ΔCt 0.2 μg/well
Protocol: as §1, §2

MNK1b = MNK1b (Homo sapiens, UniProt Q9BUB5); experiment: ELONA binding of biotin-labeled aptamer
Protocol: as §1, §2

MNK1a = MNK1a (Homo sapiens, UniProt Q9BUB5); experiment: ELONA binding of biotin-labeled aptamer
Protocol: as §1, §2

4T1 cells = experiment: Transwell invasion assay in 4T1 cells; type: cell-based, mouse; settings: 500 nM, 48 h invasion
Protocol: FIG. 21A-21E. In vivo efficacy of apMNKQ2 in a mouse metastatic model with an orthotopic xenograft of 4T1 cells. (A) Effect of apMNKQ2 aptamer on the proliferation of 4T1 cells (mouse breast tumor line). 4T1 cells were seeded in p96 at a density of 1.5×10^3 cells/well. […] The graph (FIG. 21A) represents the means±SEM of 3 independent experiments. (B) Effect of apMNKQ2 aptamer on migration and invasion of 4T1 cells. Cells were seeded in p6 at a density of 2×10^5 cells/well and transfected with 500 nM apMNKQ2 at 24 hours. […] At 24 hours (migration) or 48 h (invasion), the transwell membranes were stained with Hoechst and the cells that had passed through the fluorescence microscopy were quantified. […] The number of metastases is analyzed by the reverse staining method (with Chinese ink) and the metastases grouped according to their size in four groups (0.5, 1, 2 and >2). […]
Cell migration and invasion assays were performed using transwell (Corning, USA). […] After that time, they were collected, counted, and reseeded 4×10^4 cells in 300 μl of a serum-free complete medium inside the transwell (migration) or a transwell on which a layer of 100 μL of Matrigel (Corning, USA) (invasion) had previously been polymerized. […] Finally, two washes in PBS were performed, and 5 photographs of each membrane of the transwell were taken using a fluorescence microscope (Olympus IX70). […]

[1] = tested on: orthotopic xenograft of 4T1 cells; experiment: In vivo efficacy in metastatic orthotopic 4T1 mouse model; set-up: species or system BALBc mice; settings: 3.6 mg/kg intravenously three times a week
Protocol: FIG. 21A-21E. In vivo efficacy of apMNKQ2 in a mouse metastatic model with an orthotopic xenograft of 4T1 cells. (A) Effect of apMNKQ2 aptamer on the proliferation of 4T1 cells (mouse breast tumor line). 4T1 cells were seeded in p96 at a density of 1.5×10^3 cells/well. […] The graph (FIG. 21A) represents the means±SEM of 3 independent experiments. (B) Effect of apMNKQ2 aptamer on migration and invasion of 4T1 cells. Cells were seeded in p6 at a density of 2×10^5 cells/well and transfected with 500 nM apMNKQ2 at 24 hours. At 6 hours they were deprived of serum, and after 24 hours they were collected and re-seeded (4×10^4 cells/well) in a transwell […]. At 24 hours (migration) or 48 h (invasion), the transwell membranes were stained with Hoechst and the cells that had passed through the fluorescence microscopy were quantified. Values (FIG. 21B) represent the mean±SEM of 2-3 independent experiments. In vivo efficacy of apMNKQ2 in a mouse metastatic model with an orthotopic xenograft of 4T1 cells. (C) Evolution of mouse weight on the days of treatment with apMNKQ2 (FIG. 21C). (D) Relative tumor volume (RTV) throughout the days of treatment (FIG. 21D). (E) Number of lung metastases (FIG. 21E). The number of metastases is analyzed by the reverse staining method (with Chinese ink) and the metastases grouped according to their size in four groups (0.5, 1, 2 and >2). The stacked bars correspond to each group and represent the mean±SEM of 8-9 animals (*p<0.05 with respect to the control group).
The anti-tumour activity and the effect on and spontaneous metastasis of aptamers in BALBc mice bearing ortothopically […] 4T1 breast tumours. […] As monitoring parameters, the tumor volume, assuming they are ellipsoids, and the weight of the animals were measured. […]
To study the ability of apMNKQ2 to reduce metastasis in vivo, an orthotopic xenograft model with a murine tumor line of triple negative breast cancer, 4T1, was used. […] First, the effect of apMNKQ2 on 4T1 cells in vitro was analyzed. […]

MNK1b, sequence (Q9BUB5 1-347 isoform Q9BUB5-3): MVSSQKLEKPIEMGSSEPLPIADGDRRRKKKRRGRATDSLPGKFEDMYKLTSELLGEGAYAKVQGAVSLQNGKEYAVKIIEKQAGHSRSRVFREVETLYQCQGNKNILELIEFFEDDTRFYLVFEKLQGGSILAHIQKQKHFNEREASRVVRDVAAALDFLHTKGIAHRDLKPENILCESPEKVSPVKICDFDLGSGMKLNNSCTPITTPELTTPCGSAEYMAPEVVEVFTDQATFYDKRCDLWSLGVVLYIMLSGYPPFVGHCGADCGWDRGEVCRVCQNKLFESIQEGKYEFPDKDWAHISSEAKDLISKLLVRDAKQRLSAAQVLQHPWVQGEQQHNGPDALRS
MNK1a, sequence (Q9BUB5 1-424 isoform Q9BUB5-2): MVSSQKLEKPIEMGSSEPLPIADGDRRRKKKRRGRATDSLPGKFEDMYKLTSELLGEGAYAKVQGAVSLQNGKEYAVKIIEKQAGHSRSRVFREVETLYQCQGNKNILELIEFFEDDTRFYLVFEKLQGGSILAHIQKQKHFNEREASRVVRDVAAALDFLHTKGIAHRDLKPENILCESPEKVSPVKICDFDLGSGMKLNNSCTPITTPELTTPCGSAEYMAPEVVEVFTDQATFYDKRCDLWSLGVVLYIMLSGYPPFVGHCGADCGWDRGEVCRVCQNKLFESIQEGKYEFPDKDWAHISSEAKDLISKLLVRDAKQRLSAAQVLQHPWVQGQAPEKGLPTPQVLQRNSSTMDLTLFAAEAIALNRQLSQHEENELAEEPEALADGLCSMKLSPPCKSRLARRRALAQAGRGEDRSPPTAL
MNK1aΔ77, sequence (Q9BUB5 1-347 isoform Q9BUB5-2 limits assumed): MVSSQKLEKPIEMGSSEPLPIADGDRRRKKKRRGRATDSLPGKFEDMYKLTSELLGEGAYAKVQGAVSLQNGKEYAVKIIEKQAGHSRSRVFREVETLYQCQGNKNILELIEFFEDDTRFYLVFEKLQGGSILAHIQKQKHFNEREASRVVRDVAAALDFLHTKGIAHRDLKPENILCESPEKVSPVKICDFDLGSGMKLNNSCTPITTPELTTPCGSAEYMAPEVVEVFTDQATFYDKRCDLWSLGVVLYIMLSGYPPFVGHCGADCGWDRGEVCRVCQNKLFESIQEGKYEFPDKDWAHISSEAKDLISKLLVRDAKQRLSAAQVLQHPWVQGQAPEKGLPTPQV
MNK1ΔCt, sequence (Q9BUB5 1-335 isoform Q9BUB5-2 limits assumed): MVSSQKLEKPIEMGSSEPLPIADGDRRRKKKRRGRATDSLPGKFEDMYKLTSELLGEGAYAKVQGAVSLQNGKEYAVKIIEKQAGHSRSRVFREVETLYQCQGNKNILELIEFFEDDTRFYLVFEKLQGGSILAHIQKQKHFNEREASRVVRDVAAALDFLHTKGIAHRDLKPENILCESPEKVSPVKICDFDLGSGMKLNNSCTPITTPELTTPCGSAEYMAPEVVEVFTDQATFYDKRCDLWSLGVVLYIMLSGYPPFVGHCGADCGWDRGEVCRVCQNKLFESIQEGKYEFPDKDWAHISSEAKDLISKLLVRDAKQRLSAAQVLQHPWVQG

Substance: 5′TGGGGTGGGCGGGCGGGGGTGGGGGTGGT-3′ (DNA, backbone and methylation of C not given here; further chemistry not fully specified) [apMNKQ2]
- binding (ELONA) (MNK1aΔ77): not significant
- binding (ELONA) (MNK1ΔCt): not significant
- Kd (MNK1b; ELONA, biotin-labeled aptamer 0 to 500 nM, GST-MNK1b): 15.5 ± 2.36 nM
- binding (ELONA) (MNK1b; apMNKQ2-Bio at 20 nM, GST-MNK1b 0.2 μg/well): binds significantly
- affinity for MNK1b relative to MNK1a (MNK1b; from ELONA KD values): four-fold higher
- Kd (MNK1a; ELONA, biotin-labeled aptamer 0 to 500 nM, GST-MNK1a): 66.1 ± 20.2 nM
- binding (ELONA) (MNK1a; apMNKQ2-Bio at 20 nM, GST-MNK1a 0.2 μg/well): binds significantly
- invasion of 4T1 cells (4T1 cells): significantly decrease
- size of the tumors (relative tumor volume) ([1]; 18 days): does not produce changes
- weight of the mice ([1]; 18 days): does not produce changes
- number of lung metastasis ([1]; statistically significant for metastasis of 2 mm): decreased
